These results are taken from ChEMBL document CHEMBL3593235, “Discovery of xanthine oxidase inhibitors and/or α-glucosidase inhibitors by carboxyalkyl derivatization based on the flavonoid of apigenin” (Bioorg Med Chem Lett, 2015).

Molecules are shown by their SMILES. Calls of active or inactive are those of the source. The calls are words filed in the database; no cut-off is given here.

A short description of experiment [1]: Inhibition of alpha glucosidase (unknown origin) using para-nitrophenyl-alpha-D-glucopyranoside as substrate preincubated for 15 mins followed by substrate addition measured after 10 mins by spectrophotometric analysis. Details: species or system Homo sapiens.
Experiment [2] concerns Mus musculus. The experiment is described as follows: Hypoglycemic activity in ICR mouse assessed as decrease in elevated postprandial blood glucose level at 20 mg/kg, po administered 30 mins prior to sucrose challenge measured after 30 mins by OSTT. The class given is functional, organism-based.
For experiment [3], the system named is Mus musculus. The experiment is described as follows: Hypoglycemic activity in ICR mouse assessed as decrease in elevated postprandial blood glucose level at 20 mg/kg, po administered 30 mins prior to glucose challenge measured after 30 mins by OGTT. The class given is functional, organism-based.
In experiment [4] the target is Xanthine dehydrogenase/oxidase (Homo sapiens, UniProt P47989). The experiment is described as follows: Inhibition of xanthine oxidase (unknown origin) using xanthine as substrate preincubated for 15 mins followed by substrate addition measured after 30 mins by spectrophotometric analysis.
Chain of Xanthine dehydrogenase/oxidase (P47989 whole entry): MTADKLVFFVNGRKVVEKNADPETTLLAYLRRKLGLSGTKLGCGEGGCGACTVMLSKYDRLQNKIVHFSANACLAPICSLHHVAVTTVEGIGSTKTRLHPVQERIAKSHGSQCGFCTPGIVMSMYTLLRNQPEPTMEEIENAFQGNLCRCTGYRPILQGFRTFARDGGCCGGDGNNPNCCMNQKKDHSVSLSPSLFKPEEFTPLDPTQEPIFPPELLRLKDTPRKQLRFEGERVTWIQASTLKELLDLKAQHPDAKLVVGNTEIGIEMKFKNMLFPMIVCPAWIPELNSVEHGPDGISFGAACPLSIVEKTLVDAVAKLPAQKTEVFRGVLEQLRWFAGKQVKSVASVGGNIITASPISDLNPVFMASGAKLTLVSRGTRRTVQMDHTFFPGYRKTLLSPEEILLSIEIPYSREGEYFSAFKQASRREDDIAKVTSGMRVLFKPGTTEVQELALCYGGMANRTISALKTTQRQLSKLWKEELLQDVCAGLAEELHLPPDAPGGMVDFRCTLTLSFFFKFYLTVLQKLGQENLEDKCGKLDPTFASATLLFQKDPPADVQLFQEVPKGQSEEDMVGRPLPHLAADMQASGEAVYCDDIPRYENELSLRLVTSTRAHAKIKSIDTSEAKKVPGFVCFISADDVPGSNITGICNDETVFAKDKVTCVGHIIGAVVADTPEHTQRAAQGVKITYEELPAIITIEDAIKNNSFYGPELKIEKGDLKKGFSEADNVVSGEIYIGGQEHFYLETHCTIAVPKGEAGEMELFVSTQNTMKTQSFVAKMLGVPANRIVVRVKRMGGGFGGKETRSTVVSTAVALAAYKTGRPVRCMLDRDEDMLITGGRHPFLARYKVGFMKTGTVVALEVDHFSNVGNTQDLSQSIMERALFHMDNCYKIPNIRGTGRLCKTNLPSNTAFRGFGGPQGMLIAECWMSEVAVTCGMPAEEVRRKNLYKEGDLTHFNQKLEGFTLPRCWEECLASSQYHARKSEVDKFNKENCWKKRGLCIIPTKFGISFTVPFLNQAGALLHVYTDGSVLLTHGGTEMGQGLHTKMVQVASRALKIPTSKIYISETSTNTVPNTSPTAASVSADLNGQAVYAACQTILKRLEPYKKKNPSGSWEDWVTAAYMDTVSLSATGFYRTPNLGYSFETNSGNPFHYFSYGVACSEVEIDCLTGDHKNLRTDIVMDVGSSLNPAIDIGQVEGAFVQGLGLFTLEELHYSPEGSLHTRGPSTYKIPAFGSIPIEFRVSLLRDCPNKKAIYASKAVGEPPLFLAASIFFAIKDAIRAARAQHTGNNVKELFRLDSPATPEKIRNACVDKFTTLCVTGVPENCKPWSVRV
In experiment [5] the test system is Mus musculus. The experiment is described as follows: Hypouricemic activity in ICR mouse assessed as decrease in potassium oxonate-induced serum uric acid level at 10 mg/kg, ip after 1 hr by Uricase colorimetric method. The class given is functional, organism-based.

With `O=C(O)CCCCCCOc1cc(O)cc2oc(-c3ccc(O)cc3)cc(=O)c12`, in experiment [1], half-maximal inhibition (IC50) was put at 51.4 µM. Further, in experiment [2], the result was Active. The outcome in experiment [3] was inactive.

For the compound `C[C@H]1O[C@H](O[C@H]2[C@H](O)[C@@H](O)[C@@H](O[C@H]3[C@H](O)[C@@H](O)C(O)O[C@@H]3CO)O[C@@H]2CO)[C@H](O)[C@@H](O)[C@@H]1N[C@H]1C=C(CO)[C@@H](O)[C@H](O)[C@H]1O` (some centres undefined) [ACARBOSE], in experiment [1], the IC50 (in general, the concentration that inhibits the measured activity by half) was 222 µM. In addition, the result in experiment [2] was Active.

In the case of `O=c1cc(-c2ccc(O)cc2)oc2cc(O)cc(O)c12` [APIGENIN], the IC50 came out at 3.2 µM in experiment [4] and 24.3 µM in experiment [1]. Besides, the outcome in experiment [5] and in experiment [2] was inactive.

Compound `O=C(O)CCCCOc1cc(O)cc2oc(-c3ccc(O)cc3)cc(=O)c12` yielded an IC50 in experiment [1] of 39 µM. For the same compound, the result in experiment [2] and in experiment [3] was inactive.

`O=C(O)CCCCOc1cc(O)c2c(=O)cc(-c3ccc(O)cc3)oc2c1`: the values for the IC50 in experiment [4] and in experiment [1] were > 100 µM and 33.7 µM, respectively.

With `O=C(O)CCCCOc1ccc(-c2cc(=O)c3c(O)cc(O)cc3o2)cc1`, the IC50 was 0.22 µM in experiment [4] and > 500 µM in experiment [1].

Compound `O=C(O)COc1cc(O)c2c(=O)cc(-c3ccc(O)cc3)oc2c1` returned an IC50 in experiment [1] of 61.2 µM. This counts as double-digit micromolar.

Turning to `O=C(O)CCCCCCCOc1cc(O)cc2oc(-c3ccc(O)cc3)cc(=O)c12`, the IC50 in experiment [1] is > 500 µM.

As for `O=C(O)COc1ccc(-c2cc(=O)c3c(O)cc(O)cc3o2)cc1`, the IC50 in experiment [1] was > 500 µM.

Take `O=C(O)CCCOc1cc(O)c2c(=O)cc(-c3ccc(O)cc3)oc2c1`: the values for the IC50 in experiment [4] and in experiment [1] were > 100 µM and 44.5 µM, respectively.

`O=C(O)COc1cc(O)cc2oc(-c3ccc(O)cc3)cc(=O)c12` showed an IC50 in experiment [1] of 113 µM.

With `O=C(O)CCCOc1cc(O)cc2oc(-c3ccc(O)cc3)cc(=O)c12`, in experiment [1], 35.9 µM corresponded to half-maximal inhibition (IC50).

`O=C(O)CCCCCCOc1ccc(-c2cc(=O)c3c(O)cc(O)cc3o2)cc1`: the IC50 is 0.098 µM in experiment [4] and > 500 µM in experiment [1]. Besides, the result in experiment [5] was Active.

For the compound `Oc1ncnc2[nH]ncc12`, in experiment [5], the outcome was Active.

On to `O=C(O)CCCCCCCOc1ccc(-c2cc(=O)c3c(O)cc(O)cc3o2)cc1`, for which the IC50 in experiment [4] was 0.25 µM; in experiment [1], > 500 µM.

For the compound `O=C(O)CCCCCCOc1cc(O)c2c(=O)cc(-c3ccc(O)cc3)oc2c1`, the concentration for half-maximal inhibition (IC50) was > 100 µM in experiment [4] and 90.4 µM in experiment [1].

As to `O=C(O)CCCCCOc1ccc(-c2cc(=O)c3c(O)cc(O)cc3o2)cc1`, the IC50 in experiment [4] is 0.32 µM; in experiment [1], > 500 µM.

`O=C(O)CCCCCCCOc1cc(O)c2c(=O)cc(-c3ccc(O)cc3)oc2c1`: the IC50 was > 100 µM in experiment [4] and 18.3 µM in experiment [1]. Also, the outcome in experiment [2] and in experiment [3] was inactive.

For the compound `O=C(O)CCCCCOc1cc(O)cc2oc(-c3ccc(O)cc3)cc(=O)c12`, half-maximal inhibition in experiment [1] (IC50) was put at 26.2 µM. The outcome in experiment [2] was Active. Besides, in experiment [3], the outcome was inactive.

In the case of `O=C(O)CCCOc1ccc(-c2cc(=O)c3c(O)cc(O)cc3o2)cc1`, the IC50 in experiment [4] was 0.6 µM; in experiment [1], > 500 µM.

With `O=C(O)CCCCCOc1cc(O)c2c(=O)cc(-c3ccc(O)cc3)oc2c1`, the IC50 is > 100 µM in experiment [4] and 101 µM in experiment [1].
